Laboratory results reported in patent US12491262B2, “Gene delivery agents” (TIBA Biotech LLC, priority 2023, dated 2025).
Blank lines part the entries; values can stand above or below the compound they belong to.

Key:
[1] = Encapsulation efficiency by Ribogreen assay; assay type: physicochemical; details: formulated at pH 5
From the text: As used herein, “encapsulated” can refer to a nanoparticle that provides an active agent or therapeutic agent, such as a nucleic acid (e.g., a messenger RNA), with full encapsulation, partial encapsulation, or both. In a preferred embodiment, the nucleic acid is fully encapsulated in the nanoparticle. In the context of nucleic acid therapeutic agents, full encapsulation may be determined by a Ribogreen® assay. RiboGreen® is an ultra-sensitive fluorescent nucleic acid stain for quantitating oligonucleotides and single-stranded DNA or RNA in solution (available from Thermo Fisher Scientific—US).
Nanoparticles containing compound 3:DOPE:cholesterol:DMG-PEG2k at molar ratios of 1:0.25:0.9625:0.0375 and RNA at two different weight ratios were formulated using NanoAssemblr Benchtop (Precision NanoSystems Inc, Vancouver, BC, Canada)). RNA was diluted with DNase/RNase-Free, endotoxin free distilled water and sterile acetate buffer to a final desired pH. Total flow rate was maintained at 8 mL per min at a 3:1 ratio of aqueous to organic phase for formulating on the Benchtop. Using glassware depyrogenated by heating at 250° C. for 24 h, nanoparticles were dialyzed against sterile, endotoxin-free PBS using 20,000 molecular weight cutoff dialysis. Dialyzed nanoparticles were sterile filtered using 0.2 micron poly(ether sulfone) filters and characterized with a Zetasizer NanoZS machine (Malvern). The size distributions were characterized by a single peak with a low polydispersity index. Encapsulation efficiency was measured to be 95% for the nanoparticle composition containing compound 3 and SEAP mRNA or SEAP replicon RNA (formulated at pH 5) using Ribogreen® assay (Geall et al. 10.1073/pnas.1209367109 which is incorporated herein by reference as if fully set forth).
(§1) Nanoparticles containing the compound 8:cholesterol:DOPE:DMG-PEG2k at molar ratios of 1:2:1.5:0.0375 were formulated using NanoAssemblr Benchtop (Precision NanoSystems Inc, Vancouver, BC, Canada)). RNA was diluted with Dnase/Rnase-Free, endotoxin free distilled water and sterile citrate buffer to a final desired pH. Total flow rate was maintained at 8 mL per min at a 3:1 ratio of aqueous to organic phase for formulating on the Benchtop. Using glassware depyrogenated by heating at 250° C. for 24 hours, nanoparticles were dialyzed against sterile, endotoxin-free PBS using 20,000 molecular weight cutoff dialysis. Dialyzed nanoparticles were sterile filtered using 0.2 micron poly(ether sulfone) filters and characterized with a Zetasizer NanoZS machine (Malvern). The size distributions were characterized by a single peak with a low polydispersity index. Encapsulation efficiency was measured to be 89% for the nanoparticle composition containing compound 8 and Replicon SEAP RNA (formulated at pH 5) using Ribogreen® assay.
as §1, with “8 or compound 9:cholesterol:DOPE DMG-PEG2k” for “8:cholesterol:DOPE:DMG-PEG2k”, “7,000” for “20,000”, “81%” for “89%”, “Luciferase Ψ mRNA” for “Replicon SEAP RNA”, “assay. Encapsulation efficiency was measured to be 82% for the nanoparticle composition containing compound 9 and Luciferase Ψ mRNA (formulated at pH 5). […]” for “assay.”

[2] = tested on: SEAP expression; assay: In vivo SEAP production in mouse serum (Phospha-Light assay); design: species or system mice
[3] = Hydrodynamic size measurement by dynamic light scattering (Zetasizer); assay type: physicochemical; details: for Z average: DOPE, DMG-PEG 2000 and SEAP Replicon RNA; for Z average (size of strongest intensity): FIG. 4; for Z average (size of strongest intensity) / polydispersity index: compound 8 and SEAP RNA, hand mixing
Experimental: Additionally, with reference to FIG. 2, nanoparticles were formulated by mixing 21 μl of an ethanol phase containing compound 5 or compound 6, cholesterol, DOPE, and DMG PEG 2000 (PEG-lipid, Avanti Polar Lipids) at molar ratio of 1:2:1.5:0.0375 with 63 μl of SEAP Replicon RNA encoding secreted embryonic alkaline phosphatase (diluted with UltraPure, DNase/RNase-free, endotoxin-free distilled water (Invitrogen) and sterile 100 mM (pH 5) citrate buffer to a final citrate concentration of 10 mM. The resulting nanoparticles contained 4:1 mass ratio of compound 5 or compound 6 to RNA. Formulations were diluted 100-fold for analysis of particle size distribution, Z-average, and derived count rate using a Zetasizer Nano ZS (Malvern Panalytical).
The “Z average” of the nanoparticle composition containing compound 5 or compound 6, cholesterol, DOPE, DMG-PEG 2000 and SEAP Replicon RNA as function of size was determined by dynamic light scattering (DLS). […] Referring to FIG. 2, the size distributions were characterized with a low polydispersity index, indicating a relatively monodisperse size.
Reference to FIG. 4, nanoparticles were formulated by mixing 21 μl of an ethanol phase containing Compound 8, cholesterol, DOPE, and DMG PEG 2000 (PEG-lipid, Avanti Polar Lipids) at molar ratio of 1:2:1.5:0.0375 with 63 μl of Replicon RNA encoding secreted embryonic alkaline phosphatase (SEAP) diluted with UltraPure, DNase/RNase-free, endotoxin-free distilled water (Invitrogen) and sterile 100 mM (pH 5 or pH3) citrate buffer to a final citrate concentration of 10 mM. The derived NPs were characterized with a Zetasizer NanoZS machine (Malvern). The size distributions were characterized by a single peak with a low polydispersity index.
FIG. 4 illustrates distribution of the nanoparticle composition measured as the intensity (Z average) based on size (d.nm; diameter in nm) of the nanoparticles. Referring to FIG. 4, the “Z average” of the nanoparticle composition containing compound 8 and SEAP RNA as function of size was determined by dynamic light scattering (DLS). […] The polydispersity index of nanoparticles formulated with buffer pH 3 and pH 5 is 0.13 and 0.11, respectively, indicating a relatively monodisperse size.
as §1
The “Z average” of the nanoparticle composition containing compound 8, cholesterol, DOPE, DMG-PEG 2000 and SEAP Replicon RNA as function of size was determined by dynamic light scattering (DLS). […] Referring to Table 2, the size distributions were characterized with a low polydispersity index, indicating a relatively monodisperse size.
Nanoparticles containing the compound 8 or compound 9:cholesterol:DOPE DMG-PEG2k at molar ratios of 1:2:1.5:0.0375 were formulated using NanoAssemblr Benchtop (Precision NanoSystems Inc, Vancouver, BC, Canada)). RNA was diluted with Dnase/Rnase-Free, endotoxin free distilled water and sterile citrate buffer to a final desired pH. […]

[4] = as above; assay type: physicochemical; details: cholesterol
[5] = cholesterol:DOPE:DMG-PEG2k nanoparticles with Luciferase Ψ mRNA
[6] = Table 3, DOPE, DMG-PEG 2000 and Luciferase Ψ mRNA
[7] = cholesterol:DSPC:DMG-PEG2k 50:38.5:10:1.5 nanoparticles with SEAP Ψ mRNA
[8] = FIG. 7, DSPC, DMG-PEG 2000 and SEAP Ψ mRNA

SMILES: CCCCCCCCCCSSCCCCCCOC(=O)CCN(CCCCN(C)CCCNC(=O)CCCCCCC/C=C\C[C@@H](O)CCCCCC)CCC(=O)OCCCCCCSSCCCCCCCCCC [Compound 3]
- Encapsulation efficiency ([1]; nanoparticles compound 3:DOPE:cholesterol:DMG-PEG2k with SEAP mRNA or SEAP replicon RNA): 95%
- SEAP protein production in vivo ([2]; FIG. 1, SEAP replicon RNA and SEAP mRNA formulated with compound 3): resulted in SEAP protein production
- SEAP expression in mouse serum, 10:1 versus 15:1 compound 3:RNA ([2]; formulations with 10:1 compound 3:RNA, mice, 2 μg SEAP mRNA or SEAP replicon RNA, serum 16 hrs later): higher expression

SMILES: CCCCCCCCCCCCn1cc(COC(=O)CCN(CCCN(C)CCCNCCCO[C@H]2O[C@@H](COC(C)=O)[C@H](OC(C)=O)[C@@H](OC(C)=O)[C@@H]2OC(C)=O)CCC(=O)OCc2cn(CCCCCCCCCCCC)nn2)nn1 [Compound 6]
- Z average ([3]; FIG. 2, hand mixing with cholesterol, pH 5 citrate, 4:1 mass ratio to RNA): 122.0 nm·days

SMILES: CCCCCCCCCCCCCCCCOC(=O)CCN(CCCCN(C)CCCNCCCOP(=O)(OCC)OCC)CCC(=O)OCCCCCCCCCCCCCCCC [Compound 8]
- Encapsulation efficiency [1, 5]: 81%
- Encapsulation efficiency ([1]; compound 8:cholesterol:DOPE:DMG-PEG2k with Replicon SEAP RNA, microfluidic mixing): 89%
- Z average (size of strongest intensity) ([3]; buffer pH 3): 133.7 nm·days
- Z average (size of strongest intensity) ([3]; buffer pH 5): 191.3 nm·days
- Z average ([3]; Table 2, compound 8, cholesterol, microfluidic mixing): 78.2 nm·days
- polydispersity index ([3]; buffer pH 3): 0.13
- polydispersity index ([3]; buffer pH 5): 0.11
- Z average [4, 6]: 76.5 nm·days

Continued, in another order:

- Encapsulation efficiency [1, 5]: 82%
- Z average [4, 6]: 80.9 nm·days
SMILES: CCCCCCCCCCCCCCCCOC(=O)CCN(CCCCN(C)CCCNCCCO[C@@H]1O[C@H](COC(C)=O)[C@@H](OC(C)=O)[C@H](OC(C)=O)[C@H]1OC(C)=O)CCC(=O)OCCCCCCCCCCCCCCCC [Compound 9]

- Encapsulation efficiency [1, 7]: 89%
- Z average [4, 8]: 129.5 nm·days
SMILES: CCCCCCCCCCCCOC(=O)CCSSCCC(=O)NCCCN(C)CCCN(CCC(=O)OCCCCCCCC)CCC(=O)OCCCCCCCC [Compound 13]
- SEAP expression in mice serum, compound 13 compared to compound 18 ([2]; FIG. 8, BALB/c mice, approximately 2 μg, SEAP Ψ mRNA nanoparticles formulated at pH 5): better SEAP expression

- Encapsulation efficiency [1, 7]: 84%
- Z average [4, 8]: 74.8 nm·days
SMILES: CCCCCCCCCCCCOC(=O)CCCCCCC(=O)NCCCN(C)CCCN(CCC(=O)OCCCCCCCC)CCC(=O)OCCCCCCCC [Compound 18]
